Measured values: patent US9550811B2, “Peptide scaffold design” (BIONOR IMMUNO AS, priority 2010, dated 2017)
Like-named read-outs stand apart in the source and are kept apart here. Where no end group is shown, it is not given here. [ ]: non-standard residue; d: D form. Nle = CCCC[C@H](N)C(=O)O

Legend:
DC-cells = assay: Cell penetration assay: staining for biotinylated peptides, dendritic cells gated as CD11c+; assay type: cell-based, human; settings: low concentration of peptides (208 uM)
Method: A set of peptides were biotinylated on N-terminal, and different combinations of aminoacids, with respect to length and type, were added to the sequence box X^1, X^3 and X^4 in the peptides as illustrated by the diagram below. The peptides were tested on cells grown from one individual blood donor.
96-well U-bottom polystyrene plates (NUNC, cat no: 163320) were used for staining of human PBMCs. Briefly, 8 ul of N- or C-terminally biotinylated peptides according to table 1 or table 2 (i.e. 5 mM, 2.5 mM & 1.25 mM tested for each peptide) were incubated at 37° C. for 2 h with 40 ul of PBMC (12.5×10^6 cells/ml) from blood donors. Cells were then washed 3× with 150 ul of Cellwash (BD, cat no: 349524), followed by resuspension of each cell pellet with 100 ul of Trypsin-EDTA (Sigma, cat no: T4424), then incubated at 37° C. for 5 min. Trypsinated cells were then washed 3× with 150 ul of Cellwash (BD, cat no: 349524), followed by resuspension with BD Cytofix/Cytoperm™ plus (BD, cat no: 554715), then incubated at 4° C. for 20 min according to manufacturer. Cells were then washed 2× with 150 ul PermWash (BD, cat no: 554715). Cells were then stained with Streptavidin-APC (BD, cat no: 554067) & Anti-hCD11c (eBioscience, cat no: 12-0116) according to manufacturer at 4° C. for 30 min aiming to visualize biotinylated peptides & dendritic cells, respectively. Cells were then washed 3× with 150 ul PermWash, followed by resuspension in staining buffer (BD, cat no: 554656) before flow cytometry. Dendritic cells were gated as CD11c+ events outside lymphocyte region (i.e. higher FSC & SSC signals than lymphocytes). 200 000 total cells were acquired on a FACSCanto II flow cytometer with HTS loader, and histograms for both total cells & dendritic cells with respect to peptide-fluorescence (i.e. GeoMean) were prepared.
As shown in table 4 the peptides according to the invention had the ability to allocate through the cell membrane.

human PBMCs = assay type: cell-based; settings: for Geomean value (peptide-fluorescence): With Cytofix/Cytoperm and trypsination, BC20

| Sequence | Results on DC-cells (geomean peptide-fluorescence) (DC-cells; BC 16) | Geomean value (peptide-fluorescence) (human PBMCs; concentration 104 μM) | Geomean value (peptide-fluorescence) (human PBMCs; concentration 208 μM) | Geomean value (peptide-fluorescence) (human PBMCs; concentration 417 μM) | Geomean value (peptide-fluorescence) (human PBMCs; concentration 833 μM) | Results on DC-cells (geomean peptide-fluorescence) (DC-cells; BC43) | Intracellular staining, median (human PBMCs) |
| --- | --- | --- | --- | --- | --- | --- | --- |
| BRGLEPLVIAGILARRGSLVGLLHIVL [BI100260] | 47846 | – | – | – | – | – | – |
| BRGSDPLVVAASIVRRASIVGILHLIL [BI100260b] | 37702 | – | – | – | – | – | – |
| BRGYIPLVGAPLGRRVARALAHGVRV [SP7] | 16064 | 2766 | 10481 | 30503 | 47922 | 21414 | – |
| BRGYIPLVGAPLGRRVARALAHGVRV [SP7_c] | 20041 | – | – | – | – | 11832 | – |
| BRIAYERMCNILLBRGKFQTAAQRA [190b] | 12391 | – | – | – | – | 20444 | – |
| BRLIFLARSALILBGRSALILRGSVAHK [120b] | 44185 | – | – | – | – | – | – |
| BRLIFLARSALIVRGSVAHKS [100-12] | 24792 | – | – | – | – | 45622 | – |
| BRRLFFKTITRLFBHGLRRLLSTEGVPNSZ [BI10026] | 65196 | – | – | – | – | 43536 | – |
| BRTAYERZCNILBRGRFQTVVQBA [compound 17] | – | – | – | – | – | – | 20.77 |
| BRTAYERZCNILBRGRFQTVVQBA [compound 190] | 12906 | – | – | – | – | – | – |
| EDLIFLARSALILRGSVAHKS [100-22b] | 43537 | – | – | – | – | 28780 | – |
| EEGYIPLVGAPLGEEVARALAHGVRV [SP14] | 3704 | 62 | 392 | 682 | 1059 | 1629 | – |
| EEGYIPLVGAPLGRRVARALAHGVRV [SP16] | 5730 | 505 | 1260 | 2240 | 4558 | 3656 | – |
| GGGQIVGGVYLLPRRGPRLGVRATR [310-11n] | 5436 | – | – | – | – | – | – |
| GGGYIPLVGAPLGGGVARALAHGVRV [SP15] | 5076 | 600 | 848 | 477 | 1810 | 2539 | – |
| GYIPLVGAPLGGVARALAHGVRV [51n] | 5551 | – | – | – | – | 7721 | – |
| GYIPLVGAPLGGVARALAHGVRV [SP1_C] (GYIPLVGAPLGGVARALAHGVRV-NH2) | 9234 | – | – | – | – | – | – |
| IAYERMCNILKGKFQTAAQRA [190n] | 18616 | – | – | – | – | 23383 | – |
| KALGPAATLEEMMTACQGVG [N13] | 7982 | – | – | – | – | 5953 | – |
| KKGYIPLVGAPLGKKVARALAHGVRV [SP11] | 6490 | 601 | 1277 | 3562 | 8262 | 13230 | – |
| KKGYIPLVGAPLGKKVARALAHGVRV [SP11_c] (KKGYIPLVGAPLGKKVARALAHGVRV-NH2) | 5371 | – | – | – | – | 7878 | – |
| LFFKCIYRLFKHGLKRGPSTEGVPESM [BI10024b] | 26892 | – | – | – | – | 13002 | – |
| PEVIPMFSALSEGATPQDLNTMLN [N10] | 4597 | – | – | – | – | – | – |
| RFIIPXFTALSGGRRALLYGATPYAIG (RFIIP[Nle]FTALSGGRRALLYGATPYAIG) [V10] | 45430 | – | – | – | – | – | – |
| RGYIPLVGAPLGKKKVARALAHGVRV [SP9] | 8356 | 1268 | 2945 | 6060 | 11344 | 10084 | – |
| RGYIPLVGAPLGKKKVARALAHGVRV [SP9_c] (RGYIPLVGAPLGKKKVARALAHGVRV-NH2) | 6180 | – | – | – | – | 7758 | – |
| RGYIPLVGAPLGRRRVARALAHGVRV [SP4_c] | 20673 | – | – | – | – | 30786 | – |
